Assay results as given in publication PMC7179119, “A New Positron Emission Tomography Probe for Orexin Receptors Neuroimaging” (Molecules, 2020).
Read-outs that look alike come from different tables or passages of the source.

Assays:
M5 = molecular target: T1, M5 (Homo sapiens, UniProt P08912); test: PDSP off-target radioligand binding assay
T1 sequence (P08912 1-532): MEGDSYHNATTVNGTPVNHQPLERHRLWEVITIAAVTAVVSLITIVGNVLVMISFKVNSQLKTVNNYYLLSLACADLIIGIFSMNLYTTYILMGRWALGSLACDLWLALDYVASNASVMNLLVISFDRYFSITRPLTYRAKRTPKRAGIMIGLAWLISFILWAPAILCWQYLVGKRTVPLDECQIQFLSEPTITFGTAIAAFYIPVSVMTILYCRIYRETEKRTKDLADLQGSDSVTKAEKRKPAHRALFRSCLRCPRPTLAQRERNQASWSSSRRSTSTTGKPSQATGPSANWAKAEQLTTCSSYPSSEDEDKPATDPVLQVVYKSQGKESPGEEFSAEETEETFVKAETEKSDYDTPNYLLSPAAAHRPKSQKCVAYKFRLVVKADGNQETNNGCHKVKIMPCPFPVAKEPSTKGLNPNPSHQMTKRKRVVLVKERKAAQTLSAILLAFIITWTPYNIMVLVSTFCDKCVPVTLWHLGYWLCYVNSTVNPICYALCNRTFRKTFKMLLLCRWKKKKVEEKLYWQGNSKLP
Outline: (§1)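 Plates containing receptor, radioligand at roughly its Kd and 10 µM compound are incubated 90 min at room temperature, protected from light. Filtration onto PEI-treated mats stops the reaction; counted radioactivity, corrected by nonspecific binding with 10 µM reference ligand, yields % inhibition from quadruplicates.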

D1 = molecular target: T2, D1 (Homo sapiens, UniProt P21728); test: PDSP off-target radioligand binding assay
T2 construct: NIMH PDSP
T2 sequence (P21728 whole entry): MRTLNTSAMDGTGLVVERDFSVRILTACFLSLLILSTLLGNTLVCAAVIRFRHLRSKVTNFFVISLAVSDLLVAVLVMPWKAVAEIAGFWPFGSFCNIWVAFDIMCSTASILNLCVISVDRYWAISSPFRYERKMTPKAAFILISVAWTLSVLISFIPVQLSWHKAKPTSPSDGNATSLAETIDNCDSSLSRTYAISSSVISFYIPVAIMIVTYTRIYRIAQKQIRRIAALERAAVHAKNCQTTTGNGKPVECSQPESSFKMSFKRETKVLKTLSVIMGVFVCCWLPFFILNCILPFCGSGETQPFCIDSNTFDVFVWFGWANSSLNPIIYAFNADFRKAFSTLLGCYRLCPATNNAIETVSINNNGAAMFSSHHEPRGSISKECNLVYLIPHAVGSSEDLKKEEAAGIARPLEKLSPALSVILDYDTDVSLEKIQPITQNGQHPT
Outline: as §1

[1] = molecular target: T3, human recombinant orexin OX1 receptors (Homo sapiens, UniProt O43613); test: Human Orexin GPCR Binding (Agonist Radioligand) Assay, [125I] Orexin A competition
T3 construct: host or cells: CHO-S cells
T3 sequence (O43613 1-425): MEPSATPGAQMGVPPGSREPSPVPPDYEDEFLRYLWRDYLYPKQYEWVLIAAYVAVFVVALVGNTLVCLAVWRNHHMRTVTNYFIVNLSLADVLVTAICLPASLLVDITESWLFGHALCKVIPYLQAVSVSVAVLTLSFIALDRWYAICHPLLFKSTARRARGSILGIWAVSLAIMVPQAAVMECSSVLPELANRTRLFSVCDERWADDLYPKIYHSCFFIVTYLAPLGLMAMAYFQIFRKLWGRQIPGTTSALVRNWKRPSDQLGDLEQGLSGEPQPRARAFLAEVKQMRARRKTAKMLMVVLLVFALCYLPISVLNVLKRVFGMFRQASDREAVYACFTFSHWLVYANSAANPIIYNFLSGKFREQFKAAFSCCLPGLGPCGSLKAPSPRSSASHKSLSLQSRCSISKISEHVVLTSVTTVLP
Procedure: (§2) Radioligand competition binding assays were performed by Panlabs, Eurofins Pharma Discovery Services. Briefly, human recombinant orexin OX1 receptors expressed in CHO-S cells were used in modified HEPES buffer pH 7.4. […] Orexin A for 60 minutes at 25 °C. […] Orexin A specifically binding. Human recombinant OX2 receptors were used in modified HEPES buffer pH 7.4. […] Orexin A for 180 minutes at 25 °C. […] Orexin A specifically bound.

[2] = molecular target: T4, Human recombinant OX2 receptors (Homo sapiens, UniProt O43614); test: as above
T4 sequence (O43614 1-444): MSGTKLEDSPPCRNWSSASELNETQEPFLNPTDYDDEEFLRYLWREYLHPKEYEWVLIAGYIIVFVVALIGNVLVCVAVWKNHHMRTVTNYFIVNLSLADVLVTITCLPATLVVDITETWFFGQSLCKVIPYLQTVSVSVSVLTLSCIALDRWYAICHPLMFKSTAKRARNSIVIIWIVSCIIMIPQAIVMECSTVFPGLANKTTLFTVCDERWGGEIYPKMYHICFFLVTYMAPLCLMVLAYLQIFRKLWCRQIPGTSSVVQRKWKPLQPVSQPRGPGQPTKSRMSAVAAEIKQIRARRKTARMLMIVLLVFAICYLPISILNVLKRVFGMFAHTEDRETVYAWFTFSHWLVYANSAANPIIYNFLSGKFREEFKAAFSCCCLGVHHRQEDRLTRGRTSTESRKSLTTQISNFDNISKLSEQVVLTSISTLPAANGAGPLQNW
Procedure: as §2

[3] = Assessment of Lipophilicity (Log D; pH 7.4); assay type: physicochemical
Procedure: Log D was determined according to methods identical to those we previously reported.

40 other CNS targets = test: Off-target binding (NIMH PDSP); settings: 10 µM
Procedure: Table S1. Off binding data of CW24.
The off-target binding assays were performed at PDSP with their standard protocol (https://pdspdb.unc.edu/pdspWeb/content/UNC-CH%20Protocol%20Book.pdf). In radioligand binding assays, CW24 was tested at a single concentration (10 µM) and in quadruplicate in 96-well plates. The binding assays were carried out in a final of volume of 125 µl per well in appropriate binding buffers. The hot ligand concentration is usually at a concentration close to the Kd (unless otherwise indicated). Total binding and nonspecific binding are determined in the absence and presence of 10 µM of the appropriate reference compound, respectively. In brief, plates are usually incubated at room temperature and in the dark for 90 mins. Reactions are stopped by vacuum filtration onto 0.3% polyethyleneimine (PEI) soaked 96-well filter mats using a 96-well Filtermate harvester, followed by three washes with cold wash buffers (for details, see Tables 2 to 24). Scintillation cocktail is then melted onto the microwave-dried filters on a hot plate and radioactivity is counted in a Microbeta counter.
Receptor % Inhibition 1 % Inhibition 2 % Inhibition 3 % Inhibition 4 Mean±SD %

[4] = quadruplicate, read-out: Mean±SD % inhibition
[5] = replicate 1, read-out: % Inhibition 1
[6] = replicate 2, read-out: % Inhibition 2
[7] = replicate 3, read-out: % Inhibition 3
[8] = replicate 4, read-out: % Inhibition 4

Question: For `COc1ccnc(N2CCC3(CCCN(Cc4cn(C)c5ccccc45)C3=O)CC2)n1` [CW24], which inhibition at 10 µM (M5; [4]) is on record?
Answer: 27.4 ± 11.1%

Question: And the inhibition at 10 µM (M5; [5])?
Answer: 15.3%

Question: What about the inhibition at 10 µM (M5; [6]) of the same compound?
Answer: 31.9%

Question: What about the inhibition at 10 µM (M5; [7]) of the same compound?
Answer: 40.5%

Question: And the inhibition at 10 µM (M5; [8])?
Answer: 21.6%

Question: And the inhibition at 10 µM (D1; [4])?
Answer: 17.9 ± 12.8%

Question: What about the inhibition at 10 µM (D1; [5]) of the same compound?
Answer: 22.7%

Question: What about the inhibition at 10 µM (D1; [6]) of the same compound?
Answer: -0.84%

Question: What about the inhibition at 10 µM (D1; [7]) of the same compound?
Answer: 21.9%

Question: And the inhibition at 10 µM (D1; [8])?
Answer: 28%

Question: What about the “increase in potency compared to IPSU binding (OX1R)” value ([1]; CW24 vs IPSU) of the same compound?
Answer: ~ 5 fold

Question: What about the IC50 ([1]; competition binding against [^125I] orexin, read-out: IC50 OX1R) of the same compound?
Answer: 253 nM

Question: And the “increase in potency compared to IPSU binding (OX2R)” value ([2]; CW24 vs IPSU)?
Answer: ~ 2 fold

Question: What about the IC50 ([2]; competition binding against [^125I] orexin, read-out: IC50 OX2R) of the same compound?
Answer: 1410 nM

Question: What about the logD [3] of the same compound?
Answer: 2.3

Question: And the “selectivity for OXRs compared to 40 other CNS targets” value (40 other CNS targets)?
Answer: selective
